Patent publication US20230135152A1 (ACURASTEM INCORPORATED, priority 2020, published 2023)
pEC50: −log10 of the molar value.

Assays:
PIKFYVE [1] = target: T1, PIKFYVE (Homo sapiens, UniProt Q9Y2I7); assay: Cell-based Pikfyve inhibition activity assay (EEA1 staining, mean vesicle size in BJ fibroblast cells); conditions: Table 4, 4 hours treatment, 3 μM Apilimod = 100% inhibition
Method: BJ fibroblast cells were obtained from American Type Cell Culture (ATCC, CRL-2522). The cells were maintained in DMEM (Genesee Scientific, 25-500) supplemented with 10% fetal bovine serum (Genesee Scientific, 25-514) and 1% penicillin-streptomycin (Genesee Scientific, 25-512) at 37° C. in the atmosphere 5% CO2. BJ fibroblasts were plated into black flat clear bottom 96-well plates (Grenier, 655090) at a density of 3×10^3 per well and were allowed to attach in culture for 8-10 hours before drug treatment. Drugs were tested at eleven doses separated by 3 fold from 0.03 nM to 3000 nM in triplicates for 4 hours at 37° C. After 4 hours, treatment media was aspirated and replaced with 4% Paraformaldehyde (Electron Microscopy Science, 15714-S) and cells were fixed at room temperature for 5 minutes. 4% PFA in wells were then discarded and replaced with a blocking buffer consisting of 1×PBS with 0.1% Tween (Sigma-Aldrich, P1754-500), 5% Donkey Serum (Jackson ImmunoResearch, 017-000-121), and 1% BSA (Caisson Labs, B005-50GM) and incubated at room temperature for 30 minutes. Blocking buffer was then discarded and replaced with a primary EEA1 antibody (Fisher Scientific, BD610457) in a 1:1000 dilution and incubated at 4° C. overnight. Following overnight incubation, plates were washed with 1×PBS three times and incubated with secondary antibody Donkey anti-Mouse IgG, Alexa Fluor 555 (Invitrogen, A31570) (1:1000 dilution) for 1 hour at room temperature in the dark. Subsequently cell plates were washed with 1×PBS three times and can be stored at 4° C. if not being proceeding with imaging procedure.
Images were acquired with 20× objective (ImageXpress MicroConfocal, Molecular Devices) creating z-series of 5 planes (5 steps, […]), 16 tiles per well. Images were then analyzed using a custom CellProfiler protocol to obtain mean vesicle size. The mean vesicle size from 16 images was used as the output for each well. The mean vesicle size from 0.5% DMSO treated condition was considered as having no Pikfyve inhibition activity and the 3 μM Apilimod treated condition was considered as having 100% inhibition activity. The mean vesicle size was converted to % inhibition activity and the data was fitted to a dose-response curve using log(inhibitor) vs normalized response-variable slope using GraphPad Prism.

PIKFYVE [2] = target: T1, PIKFYVE; assay: PIKFYVE assay (luciferase ADP-Glo kinase assay, Promega); format: biochemical
How it was run: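 Kinase activity measured with a luciferase-based ADP-Glo read-out, which quantifies ADP formed by the enzyme.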

T1 sequence (Q9Y2I7 whole entry): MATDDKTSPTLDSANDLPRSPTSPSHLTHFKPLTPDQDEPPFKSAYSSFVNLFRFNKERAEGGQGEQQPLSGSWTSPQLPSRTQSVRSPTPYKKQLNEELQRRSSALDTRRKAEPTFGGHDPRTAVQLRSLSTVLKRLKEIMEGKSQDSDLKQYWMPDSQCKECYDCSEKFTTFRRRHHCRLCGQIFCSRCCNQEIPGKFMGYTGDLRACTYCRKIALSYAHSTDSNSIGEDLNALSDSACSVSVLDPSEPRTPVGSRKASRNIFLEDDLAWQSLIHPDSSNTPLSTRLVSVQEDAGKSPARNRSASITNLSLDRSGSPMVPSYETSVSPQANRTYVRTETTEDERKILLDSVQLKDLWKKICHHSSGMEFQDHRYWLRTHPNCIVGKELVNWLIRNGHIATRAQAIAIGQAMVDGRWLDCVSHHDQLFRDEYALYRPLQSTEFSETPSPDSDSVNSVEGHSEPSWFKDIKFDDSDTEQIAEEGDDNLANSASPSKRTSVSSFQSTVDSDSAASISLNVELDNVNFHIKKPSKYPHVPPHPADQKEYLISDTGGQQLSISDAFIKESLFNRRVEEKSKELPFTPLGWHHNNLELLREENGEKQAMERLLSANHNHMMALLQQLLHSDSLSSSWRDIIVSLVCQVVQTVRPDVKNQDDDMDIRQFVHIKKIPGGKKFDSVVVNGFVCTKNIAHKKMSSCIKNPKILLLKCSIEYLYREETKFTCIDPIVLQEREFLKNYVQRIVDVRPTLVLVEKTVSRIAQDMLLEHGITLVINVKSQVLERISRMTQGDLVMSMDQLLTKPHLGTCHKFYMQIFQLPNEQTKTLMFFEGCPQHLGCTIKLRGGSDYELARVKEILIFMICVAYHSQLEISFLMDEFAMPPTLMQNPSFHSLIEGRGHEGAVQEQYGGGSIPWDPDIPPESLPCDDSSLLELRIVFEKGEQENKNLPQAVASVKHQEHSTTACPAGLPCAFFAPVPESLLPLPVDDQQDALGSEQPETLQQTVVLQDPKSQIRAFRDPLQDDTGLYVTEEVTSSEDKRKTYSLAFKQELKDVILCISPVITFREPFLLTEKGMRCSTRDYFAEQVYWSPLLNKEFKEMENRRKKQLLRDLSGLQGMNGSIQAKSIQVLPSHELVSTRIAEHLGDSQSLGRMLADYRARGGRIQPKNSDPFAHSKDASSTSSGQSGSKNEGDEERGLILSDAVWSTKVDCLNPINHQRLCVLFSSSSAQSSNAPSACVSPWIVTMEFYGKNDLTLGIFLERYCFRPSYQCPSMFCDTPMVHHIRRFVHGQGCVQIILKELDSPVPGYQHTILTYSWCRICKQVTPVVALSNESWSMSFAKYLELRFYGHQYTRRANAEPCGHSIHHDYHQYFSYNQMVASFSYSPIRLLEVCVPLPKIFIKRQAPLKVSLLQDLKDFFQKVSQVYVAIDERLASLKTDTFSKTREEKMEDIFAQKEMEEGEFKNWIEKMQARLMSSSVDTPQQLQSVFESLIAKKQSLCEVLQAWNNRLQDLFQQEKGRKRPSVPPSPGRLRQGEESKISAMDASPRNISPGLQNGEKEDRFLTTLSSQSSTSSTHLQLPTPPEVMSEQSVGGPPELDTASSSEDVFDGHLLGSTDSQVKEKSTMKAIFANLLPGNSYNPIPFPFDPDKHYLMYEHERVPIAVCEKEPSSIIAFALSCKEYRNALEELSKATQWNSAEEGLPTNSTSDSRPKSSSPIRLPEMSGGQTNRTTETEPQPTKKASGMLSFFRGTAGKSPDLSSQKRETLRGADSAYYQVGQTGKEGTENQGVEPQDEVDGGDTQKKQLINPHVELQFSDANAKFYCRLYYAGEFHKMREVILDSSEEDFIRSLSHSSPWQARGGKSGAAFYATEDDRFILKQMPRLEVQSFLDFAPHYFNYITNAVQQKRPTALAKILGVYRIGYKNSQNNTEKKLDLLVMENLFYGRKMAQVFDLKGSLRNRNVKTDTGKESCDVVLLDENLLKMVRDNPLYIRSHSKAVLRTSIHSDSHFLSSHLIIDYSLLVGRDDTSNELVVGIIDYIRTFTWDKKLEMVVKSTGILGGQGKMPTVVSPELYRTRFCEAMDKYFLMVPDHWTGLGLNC

| Compound | pEC50 (PIKFYVE [1]) | IC50 (PIKFYVE [2]; Table 2) | IC50 (PIKFYVE [2]; Table 3) |
| --- | --- | --- | --- |
| Cc1cccc(-c2ccn(-c3cc(N4CCOCC4)nc(OCCc4ccnn4C)n3)n2)c1 [Compound 55, 4-(2-(2-(1-methyl-1H-pyrazol-5-yl)ethoxy)-6-(3-(m-tolyl)-1H-pyrazol-1-yl)pyrimidin-4-yl)morpholine] | 7.00 to 7.70 | < 5 nM |  |
| Cc1cccc(-c2ccn(-c3cc(N4CCOCC4)nc(OCCc4cnn(C)c4)n3)n2)c1 [Compound 56, 4-(2-(2-(1-methyl-1H-pyrazol-4-yl)ethoxy)-6-(3-(m-tolyl)-1H-pyrazol-1-yl)pyrimidin-4-yl)morpholine] | > 7.70 | < 5 nM |  |
| COc1nc(N2CCOCC2)cc(-n2ccc(-c3cccc(C)c3)n2)n1 [Compound 59, 4-(2-methoxy-6-(3-(m-tolyl)-1H-pyrazol-1-yl)pyrimidin-4-yl)morpholine] | 7.00 to 7.70 | 5 to 100 nM |  |
| Cc1cccc(-c2ccn(-c3cc(N4CCOCC4)ncn3)n2)c1 [Compound 60, 4-(6-(3-(m-tolyl)-1H-pyrazol-1-yl)pyrimidin-4-yl)morpholine] | 5.30 to 6.30 | 101 to 1000 nM |  |
| Cc1cccc(-c2ccn(-c3cc(N4CCOCC4)nc(N4CCCC4=O)n3)n2)c1 [Compound 61, 1-(4-morpholino-6-(3-(m-tolyl)-1H-pyrazol-1-yl)pyrimidin-2-yl)pyrrolidin-2-one] | 6.30 to 7.00 | 5 to 100 nM |  |
| Cn1cc(CCOc2nc(N3CCOCC3)cc(-n3ccc(OCc4ccccc4)n3)n2)cn1 [Compound 62, 4-(6-(3-(benzyloxy)-1H-pyrazol-1-yl)-2-(2-(1-methyl-1H-pyrazol-4-yl)ethoxy)pyrimidin-4-yl)morpholine] | 7.00 to 7.70 | < 5 nM |  |
| Cn1cc(CCOc2nc(N3CCOCC3)cc(-n3ccc(C(=O)Nc4ccccc4)n3)n2)cn1 [Compound 64, 1-(2-(2-(1-methyl-1H-pyrazol-4-yl)ethoxy)-6-morpholinopyrimidin-4-yl)-N-phenyl-1H-pyrazole-3-carboxamide] | 7.00 to 7.70 | < 5 nM |  |
| CC(=O)Nc1nc(N2CCOCC2)cc(-n2ccc(-c3cccc(C)c3)n2)n1 [Compound 66, N-(4-morpholino-6-(3-(m-tolyl)-1H-pyrazol-1-yl)pyrimidin-2-yl)acetamide] | 6.30 to 7.00 | < 5 nM |  |
| COC(Cc1ccnn1C)c1nc(N2CCOCC2)cc(-n2ccc(-c3ccccc3)n2)n1 (centres unmarked) [Compound 68, 4-(2-(1-methoxy-2-(1-methyl-1H-pyrazol-5-yl)ethyl)-6-(3-phenyl-1H-pyrazol-1-yl)pyrimidin-4-yl)morpholine] | 6.30 to 7.00 | < 5 nM |  |
| COCc1nc(N2CCOCC2)cc(-n2ccc(-c3ccccc3)n2)n1 [Compound 69] | 5.30 to 6.30 | 5 to 100 nM |  |
| COC(=O)c1ccn(-c2cc(N3CCOCC3)nc(OCCc3cnn(C)c3)n2)n1 [Compound 70] | < 5.30 | 5 to 100 nM |  |
| Cn1cc(CCOc2nc(N3CCOCC3)cc(-n3ccc(-c4cccnc4)n3)n2)cn1 [Compound 71, 4-(2-(2-(1-methyl-1H-pyrazol-4-yl)ethoxy)-6-(3-(pyridin-3-yl)-1H-pyrazol-1-yl)pyrimidin-4-yl)morpholine] | 5.30 to 6.30 | < 5 nM |  |
| COC(CC#N)c1nc(N2CCOCC2)cc(-n2ccc(-c3cccc(C)c3)n2)n1 (centres unmarked) [Compound 72, 3-methoxy-3-(4-morpholino-6-(3-(m-tolyl)-1H-pyrazol-1-yl)pyrimidin-2-yl)propanenitrile] | 6.30 to 7.00 | < 5 nM |  |
| Cc1cccc(-c2ccn(-c3cc(N4CCOCC4)nc(OCCc4cnn(CCN(C)C)c4)n3)n2)c1 [Compound 74, N,N-dimethyl-2-(4-(2-((4-morpholino-6-(3-(m-tolyl)-1H-pyrazol-1-yl)pyrimidin-2-yl)oxy)ethyl)-1H-pyrazol-1-yl)ethan-1-amine] | 7.00 to 7.70 | < 5 nM |  |
| CN(C)Cc1cc(-c2ccccc2)nn1-c1cc(N2CCOCC2)nc(OCCc2cnn(C)c2)n1 [Compound 75, N,N-dimethyl-1-(1-(2-(2-(1-methyl-1H-pyrazol-4-yl)ethoxy)-6-morpholinopyrimidin-4-yl)-3-phenyl-1H-pyrazol-5-yl)methanamine] | 6.30 to 7.00 | 5 to 100 nM |  |
| Cc1cccc(-c2ccn(-c3cc(N4CCOCC4)nc(C(O)CC#N)n3)n2)c1 (centres unmarked) [Compound 76, 3-hydroxy-3-(4-morpholino-6-(3-(m-tolyl)-1H-pyrazol-1-yl)pyrimidin-2-yl)propanenitrile] | 7.00 to 7.70 | < 5 nM |  |

| Compound | pEC50 (PIKFYVE [1]) | IC50 (PIKFYVE [2]; Table 2) | IC50 (PIKFYVE [2]; Table 3) |
| --- | --- | --- | --- |
| COCc1cc(-c2ccccc2)n(-c2cc(N3CCOCC3)nc(OCCc3cnn(C)c3)n2)n1 [Compound 77, 4-(6-(3-(methoxymethyl)-5-phenyl-1H-pyrazol-1-yl)-2-(2-(1-methyl-1H-pyrazol-4-yl)ethoxy)pyrimidin-4-yl)morpholine] | 5.30 to 6.30 | 5 to 100 nM |  |
| COC(c1ccccc1)c1nc(N2CCOCC2)cc(-n2ccc(-c3ccccc3)n2)n1 (centres unmarked) [Compound 78, 4-(2-(methoxy(phenyl)methyl)-6-(3-phenyl-1H-pyrazol-1-yl)pyrimidin-4-yl)morpholine] | 5.30 to 6.30 | 5 to 100 nM |  |
| Cn1cc(C(O)CCc2nc(N3CCOCC3)cc(-n3ccc(-c4ccccc4)n3)n2)cn1 (centres unmarked) [Compound 79, 1-(1-methyl-1H-pyrazol-4-yl)-3-(4-morpholino-6-(3-phenyl-1H-pyrazol-1-yl)pyrimidin-2-yl)propan-1-ol] | 6.30 to 7.00 | < 5 nM |  |
| Cn1cc(C(O)C#Cc2nc(N3CCOCC3)cc(-n3ccc(-c4ccccc4)n3)n2)cn1 (centres unmarked) [Compound 80, 1-(1-methyl-1H-pyrazol-4-yl)-3-(4-morpholino-6-(3-phenyl-1H-pyrazol-1-yl)pyrimidin-2-yl)prop-2-yn-1-ol] | 7.00 to 7.70 | < 5 nM |  |
| Cc1cccc(-c2ccn(-c3cc(N4CCOCC4)nc(C)n3)n2)c1 [Compound 81, 4-(2-methyl-6-(3-(m-tolyl)-1H-pyrazol-1-yl)pyrimidin-4-yl)morpholine] | 6.30 to 7.00 | < 5 nM |  |
| Cc1cccc(-c2ccn(-c3cc(N4CCOCC4)nc(C(F)(F)F)n3)n2)c1 [Compound 82] | 5.30 to 6.30 | 5 to 100 nM |  |
| COc1nc(N2CCOCC2)c(C)c(-n2ccc(-c3cccc(C)c3)n2)n1 [Compound 83, 4-(2-methoxy-5-methyl-6-(3-(m-tolyl)-1H-pyrazol-1-yl)pyrimidin-4-yl)morpholine] | < 5.30 | 101 to 1000 nM |  |
| CNc1nc(N2CCOCC2)cc(-n2nc(-c3ccccc3)cc2C)n1 [Compound 85] | 5.30 to 6.30 | 101 to 1000 nM |  |
| Cc1cccc(-c2cc(CN(C)C)n(-c3cc(N4CCOCC4)nc(OCCc4cnn(C)c4)n3)n2)c1 [Compound 86, N,N-dimethyl-1-(1-(2-(2-(1-methyl-1H-pyrazol-4-yl)ethoxy)-6-morpholinopyrimidin-4-yl)-3-(m-tolyl)-1H-pyrazol-5-yl)methanamine] | 7.00 to 7.70 | < 5 nM |  |
| COc1cc(N2CCOCC2)nc(-n2ccc(-c3cccc(C)c3)n2)n1 [Compound 87, 4-(6-methoxy-2-(3-(m-tolyl)-1H-pyrazol-1-yl)pyrimidin-4-yl)morpholine] | 6.30 to 7.00 | 101 to 1000 nM |  |
| CC(=O)c1nc(N2CCOCC2)cc(-n2ccc(-c3cccc(C)c3)n2)n1 [Compound 88, 1-(4-morpholino-6-(3-(m-tolyl)-1H-pyrazol-1-yl)pyrimidin-2-yl)ethan-1-one] | 6.30 to 7.00 | < 5 nM |  |
| CC(=O)NCCOc1nc(N2CCOCC2)cc(-n2ccc(-c3cccc(C)c3)n2)n1 [Compound 90, N-(2-((4-morpholino-6-(3-(m-tolyl)-1H-pyrazol-1-yl)pyrimidin-2-yl)oxy)ethyl) acetamide] | > 7.70 | < 5 nM |  |
| Cc1cccc(-c2ccn(-c3cc(N4CCOCC4)nc(OCCOc4ccccc4)n3)n2)c1 [Compound 93, 4-(2-(2-phenoxyethoxy)-6-(3-(m-tolyl)-1H-pyrazol-1-yl)pyrimidin-4-yl)morpholine] | 6.30 to 7.00 |  | 10 to 100 nM |
| Cc1cccc(-c2ccn(-c3cc(N4CCOCC4)nc(OCCc4cnccn4)n3)n2)c1 [Compound 94, 4-(2-(2-(pyrazin-2-yl)ethoxy)-6-(3-(m-tolyl)-1H-pyrazol-1-yl)pyrimidin-4-yl)morpholine] | > 7.70 |  | < 3 nM |
| Cc1cccc(-c2ccn(-c3cc(N4CCOCC4)nc(OCc4ncccc4F)n3)n2)c1 [Compound 95, 4-(2-((3-fluoropyridin-2-yl)methoxy)-6-(3-(m-tolyl)-1H-pyrazol-1-yl)pyrimidin-4-yl)morpholine] | 7.00 to 7.70 |  | 3 to 10 nM |
